Reference: patent US9096889B2, “Compositions and methods for monitoring transmembrane trafficking” (Promega Corporation, priority 2011, dated 2015)

Assays:
AT1R/FFluc fusion = AT1R/FFluc fusion endocytosis assay (reduction of luciferase signal); type: cell-based; settings: varying concentrations, 15 minutes stimulation, FIG. 8
Description: For FFluc-V2R and FFluc-AT1R, plasmid DNA was transfected at 5 ng/well and 0.16 ng/well respectively. For transfection into HeLa cells, plasmid DNA was diluted 1:10 into carrier DNA yielding 5 ng/well plasmid DNA. […] 50 μL per well of luciferase substrate, D-luciferin, was then added to a final concentration of 0.2 mM D-luciferin, 2 mM MgCl2, and 2 mM ATP, and the cells incubated for 30 minutes at 37° C. For AT1R and V2R, 0.02 mM D-luciferin was used. For the luc2-B2AR experiment, 0.01 mM D-luciferin was used. For the FFLuc experiment using the D-luciferin derivative, PBI-3102, 0.02 mM substrate was used. Immediately prior to stimulation, luminescence was measured on a GLOMAX Multi Plus plate reader set to 0.5 s of integration time. Cells were then stimulated with the agonist indicated below ( 1/10 volume addition), and luminescence measured every two minutes in real-time. […] As controls, cells were treated with vehicle (Opti-MEM containing either DMSO or water). Normalized luminescence was determined by dividing the luminescence value (RLUs) of each sample by the luminescence from the same sample prior to stimulation (SEE FIG. 1A-D).
Cells were transfected with plasmid DNA encoding AT1R/FFluc fusion. […] Immediately prior to stimulation, luminescence was measured. Cells were then stimulated with varying concentrations of TRV120027 for 15 minutes, and luminescence detected. […]

[1] = molecular target: beta2-adrenergic receptor (B2AR) fused to firefly luciferase (luc2) (UniProt P07550+P08659, E27Q/G16R/N119G/N50D); settings: HEK293 cells, serially diluted agonist 30 minutes, trypsin/EDTA, D-luciferin without Mg/ATP, FIG. 2F
Chain of beta2-adrenergic receptor (B2AR) fused to firefly luciferase (luc2) (P08659+P07550 fused P08659:N50D/P08659:N119G/P07550:G16R/P07550:E27Q): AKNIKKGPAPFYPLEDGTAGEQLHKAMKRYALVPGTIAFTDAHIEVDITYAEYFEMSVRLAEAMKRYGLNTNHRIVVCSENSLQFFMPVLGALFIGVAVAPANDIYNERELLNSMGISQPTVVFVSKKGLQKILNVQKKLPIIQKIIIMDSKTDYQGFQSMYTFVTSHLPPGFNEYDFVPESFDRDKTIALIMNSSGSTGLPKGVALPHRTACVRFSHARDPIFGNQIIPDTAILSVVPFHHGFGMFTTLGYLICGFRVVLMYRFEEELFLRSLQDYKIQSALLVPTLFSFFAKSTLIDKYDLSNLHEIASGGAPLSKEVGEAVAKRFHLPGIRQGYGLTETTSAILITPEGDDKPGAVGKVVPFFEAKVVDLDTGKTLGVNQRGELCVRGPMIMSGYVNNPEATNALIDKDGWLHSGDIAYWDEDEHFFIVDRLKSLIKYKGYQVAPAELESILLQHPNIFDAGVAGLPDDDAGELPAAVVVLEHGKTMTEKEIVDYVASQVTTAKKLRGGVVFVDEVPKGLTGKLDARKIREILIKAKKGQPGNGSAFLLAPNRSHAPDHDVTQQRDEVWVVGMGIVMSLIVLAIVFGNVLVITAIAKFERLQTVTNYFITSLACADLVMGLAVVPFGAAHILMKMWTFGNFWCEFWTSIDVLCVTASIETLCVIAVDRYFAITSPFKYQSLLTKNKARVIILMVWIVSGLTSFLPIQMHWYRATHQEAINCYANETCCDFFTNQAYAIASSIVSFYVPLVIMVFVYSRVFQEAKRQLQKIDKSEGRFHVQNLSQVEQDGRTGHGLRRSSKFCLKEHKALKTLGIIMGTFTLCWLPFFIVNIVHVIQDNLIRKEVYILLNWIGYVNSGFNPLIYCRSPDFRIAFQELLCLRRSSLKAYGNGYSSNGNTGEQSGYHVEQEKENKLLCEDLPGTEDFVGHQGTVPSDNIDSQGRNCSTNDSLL

Row | SMILES | internalization of AT1R/FFluc fusion proteins (normalized luminescence) (AT1R/FFluc fusion) | raw luminescence signal (endocytosis, gain of signal), negative control (B2AR) fusion proteins [1]
1 | CC[C@H](C)[C@H](NC(=O)[C@H](Cc1ccc(O)cc1)NC(=O)[C@@H](NC(=O)[C@H](CCCNC(=N)N)NC(=O)CNC)C(C)C)C(=O)N[C@@H](Cc1cnc[nH]1)C(=O)N1CCC[C@H]1C(=O)N[C@H](C)C(=O)O [TRV120027] | detected internalization | –
2 | NC(=O)CC[C@@H]1NC(=O)[C@H](Cc2ccccc2)NC(=O)[C@H](Cc2ccc(O)cc2)NC(=O)[C@@H](N)CSSC[C@@H](C(=O)N2CCC[C@H]2C(=O)N[C@@H](CCCN=C(N)N)C(=O)NCC(N)=O)NC(=O)[C@H](CC(N)=O)NC1=O [arginine vasopressin] | – | no increase
